SMILES strings stand for the structures. Read-outs that look alike come from different tables or passages of the source.

Results on 16 molecules are retold here after patent EP0061001A1, “Antiallergic agent comprising derivatives of adenosine” (Yamasa Shoyu Kabushiki Kaisha, priority 1981, dated 1982).

In data set [1] the test system is Passive cutaneous anaphylaxis (PCA). Nature of the data set: Passive cutaneous anaphylaxis (PCA) suppressing effect, method of J. Goose et al. Format: in vivo, rats (Sprague Dawley-strain). The following applies: iv, 40 min, rat PCA, compound given intravenously with antigen and Evans blue. The procedure: According to the method of J. Goose et al (see Immunology 16, 749, 1969), PCA reaction was carried out in the following manner.
To male rats (Sprague Dawley-strain; hereinafter abbreviated as SD-strain), weighing 120 to 150 g, 10 mg/kg of ovalubumin was administered intramuscularly and 2 x 10^10 cells of Bodetalla pertussis vaccine intraperitoneally. After 10 to 12 days, each rat was bled and antiserum was separated.
To other rats (SD-strain, weighing 120 to 150 g) shaved at the back, under ether anesthetization, 0.1 ml of the above antiserum diluted 4-fold was injected intradermally for dermal sensitization. After 48 hours, 1 mg/kg of ovalubumin (antigen), 1 mg/kg of Evans blue (dye) and various N^6-ω-aminoalkyl adenosine compounds and DSCG or isotonic saline were challenged intravenously. After 40 minutes, the diameter of dye spots on the skin and the leak quantity of dye were measured to determine ED50 (50% effective amount) for each compound.
The leak quantity of dye was determined by extracting the dye from the skin peeled off with potassium hydroxide, removing proteins with acetoneafter neutralization with phosphoric acid, and thereafter measuring absorbance at 620 nm of the resultant extract, which step was then followed by calculation therefrom. The N^6-ω-aminoalkyl adenosine compounds provided for the tests are enumerated below: […]

A further data set in a line: Acute toxicity tests. The following applies: mouse, in vivo, ip; male mice, intraperitoneally, free form in isotonic saline solution or suspension; brackets = 95% confidence limit. The procedure:
To ICR-JCL-strain mice (male, weighing 24 to 28 g), various N^6-w-aminoalkyl adenosine compound-s (each in free form) were administered as isotonic saline solutions or suspensions each in a dosage of 0.1 ml/10 g intraperitoneally for determination of LD50.

[2] abbreviates: diameter of dye spots on the skin after 40 minutes, read-out: ED50 By diameter.
Setting [3] is: leak quantity of dye after 40 minutes (absorbance at 620 nm), read-out: ED50 By dye quantity.

The ED50 is the dose that gives a 50% effect, or the effect in half of the subjects. Turning to `O=C(O)c1cc(=O)c2c(OCC(O)COc3cccc4oc(C(=O)O)cc(=O)c34)cccc2o1` [DSCG, disodium cromoglycate, reference compound], the results for the ED50 in data set [1] (setting [2]) and in data set [1] (setting [3]) were 3.3 mg/kg and 3 mg/kg, respectively.
As to `NCCCNc1ncnc2c1ncn2[C@@H]1O[C@H](CO)[C@@H](O)[C@H]1O` [compound 1, N^6-(3-amino-n-propyl)-Ado], the figures for the 50% effective dose (ED50) in data set [1] (setting [2]) and in data set [1] (setting [3]) were 0.87 mg/kg and 0.2 mg/kg, respectively.
`NCCCCCCNc1ncnc2c1ncn2[C@@H]1O[C@H](CO)[C@@H](O)[C@H]1O` [compound 2, N^6-(6-amino-n-hexyl)-Ado]: the 50% effective dose (ED50) in data set [1] (setting [2]) was 0.15 mg/kg; in data set [1] (setting [3]), 0.06 mg/kg.
One may read the LD50 as the dose at which mortality reaches 50%. Read a low LD50 as greater toxicity. In the case of `NCCCCCCCNc1ncnc2c1ncn2[C@@H]1O[C@H](CO)[C@@H](O)[C@H]1O` [compound 3, N^6-(7-amino-n-heptyl)-Ado], the results for the ED50 in data set [1] (setting [2]) and in data set [1] (setting [3]) were 0.058 mg/kg and 0.06 mg/kg, respectively. Moreover, the LD50 in the data set “Acute toxicity tests” was 145 mg/kg.
As to `NCCCCCCCCCNc1ncnc2c1ncn2[C@@H]1O[C@H](CO)[C@@H](O)[C@H]1O` [compound 4, N^6-(9-amino-n-nonyl)-Ado], the ED50 in data set [1] (setting [2]) and in data set [1] (setting [3]) was 0.084 mg/kg in each case. In the data set “Acute toxicity tests”, this molecule showed an LD50 of 175 mg/kg.
For `NCCCNc1ncnc2c1ncn2[C@@H]1O[C@H](COP(=O)(O)O)[C@@H](O)[C@H]1O` [compound 5, N^6-(3-amino-n-propyl)-5'-AMP], the median effective dose (ED50) in data set [1] (setting [2]) turned out to be 0.46 mg/kg; in data set [1] (setting [3]), 0.31 mg/kg.
`NCCCCCCNc1ncnc2c1ncn2[C@@H]1O[C@H](COP(=O)(O)O)[C@@H](O)[C@H]1O` [compound 6, N^6-(6-amino-n-hexyl)-5'-AMP]: the ED50 was found to be 0.51 mg/kg in data set [1] (setting [2]) and 0.32 mg/kg in data set [1] (setting [3]).
Turning to `NCCCCCCCCCNc1ncnc2c1ncn2[C@@H]1O[C@H](COP(=O)(O)O)[C@@H](O)[C@H]1O` [compound 7, N^6-(9-amino-n-nonyl)-5'-AMP], the ED50 in data set [1] (setting [2]) is 0.29 mg/kg; in data set [1] (setting [3]), 0.16 mg/kg. Moreover, the LD50 in the data set “Acute toxicity tests” is 195 mg/kg.
In the case of `NCCCCNc1ncnc2c1ncn2[C@@H]1O[C@H](CO)[C@@H](OP(=O)(O)O)[C@H]1O` [compound 8], the ED50 in data set [1] (setting [2]) amounted to 1.7 mg/kg; in data set [1] (setting [3]), 0.64 mg/kg.
For `NCCCCCCNc1ncnc2c1ncn2[C@@H]1O[C@H](CO)[C@@H](OP(=O)(O)O)[C@H]1O` [compound 9, N^6-(6-amino-n-hexyl)-3'-AMP], the ED50 came to 1.9 mg/kg in data set [1] (setting [2]) and 0.7 mg/kg in data set [1] (setting [3]).
As for `NCCCCCCCCNc1ncnc2c1ncn2[C@@H]1O[C@H](CO)[C@@H](OP(=O)(O)O)[C@H]1O` [compound 10, N^6-(8-amino-n-octyl)-3'-AMP], the ED50 in data set [1] (setting [2]) is 1.5 mg/kg; in data set [1] (setting [3]) it was 0.7 mg/kg. Besides, in the data set “Acute toxicity tests”, the LD50 came out at 220 mg/kg.
In the case of `NCCCCNc1ncnc2c1ncn2[C@@H]1O[C@@H]2COP(=O)(O)O[C@H]2[C@H]1O` [compound 11, N^6-(4-amino-n-butyl)-cAMP], the ED50 worked out at 15 mg/kg in data set [1] (setting [2]) and 9.4 mg/kg in data set [1] (setting [3]).
For `NCCCCCCNc1ncnc2c1ncn2[C@@H]1O[C@@H]2COP(=O)(O)O[C@H]2[C@H]1O` [compound 12, N^6-(6-amino-n-hexyl)-cAMP], the ED50 stood at 3.3 mg/kg in data set [1] (setting [2]) and 3.2 mg/kg in data set [1] (setting [3]). In “Acute toxicity tests”, this molecule registered a 50% lethal dose (LD50) of 165 mg/kg.
Take `NCCCCCCCCNc1ncnc2c1ncn2[C@@H]1O[C@@H]2COP(=O)(O)O[C@H]2[C@H]1O` [compound 13, N^6-(8-amino-n-octyl)-cAMP]: the 50% effective dose (ED50) came out at 3.7 mg/kg in data set [1] (setting [2]) and 3.1 mg/kg in data set [1] (setting [3]).
The like results for `NCCCCCCCCCNc1ncnc2c1ncn2[C@@H]1O[C@@H]2COP(=O)(O)O[C@H]2[C@H]1O` [compound 14, N^6-(9-amino-n-nonyl)-cAMP] were, in that order, over 3.3 mg/kg and 3.3 mg/kg.
Regarding `NCCCCCCCCCCNc1ncnc2c1ncn2[C@@H]1O[C@@H]2COP(=O)(O)O[C@H]2[C@H]1O` [compound 15, N^6-(10-amino-n-decanyl)-cAMP], the ED50 in data set [1] (setting [2]) stood at 8.2 mg/kg; in data set [1] (setting [3]), 6 mg/kg.
